Source: publication PMC10901353, “Identification of a potent and selective LAPTc inhibitor by RapidFire-Mass Spectrometry, with antichagasic activity” (PLOS Neglected Tropical Diseases, 2024)
Several values for one entry are separate records, joined by “and”; a condition that tells them apart may be missing. Identical values can stand only once. Like-named read-outs stand apart in the source and are kept apart here.

Legend:
[1] = target: T1, LAPTc (acidic M17 leucyl-aminopeptidase from T. cruzi) (Trypanosoma cruzi, UniProt V5BWE3); assay: High-throughput single point screening for LAPTc inhibitors by RapidFire-MS; assay type: biochemical; settings: primary screen, 30 μM, single replicate; read-out: Percent Inhibition
Procedure: (§1) This assay was previously described. The assay was performed in 384-well clear F-bottom polypropylene plates with a final reaction volume of 15 μL. The reaction mixture contained 7.5 μL LAPTc in 50 mM Tris-HCl, pH 7.5, 0.005% NP-40 and 7.5 μL LSTVIVR peptide substrate (Cambridge Research Biochemicals, Billingham, UK) in the same buffer was added to start the reaction. The reaction was performed at room temperature for 40 min and then stopped with 85 μL 1% formic acid containing 0.15 mg/mL STVIVR* internal standard (Cambridge Research Biochemicals, Billingham, UK).
Single point screening of a library of 3329 compounds was performed in 384-well clear plates (Greiner 781101) at room temperature. Test compounds (45 nL in DMSO) were transferred to assay plates by an ECHO 550 acoustic dispenser (Labcyte). LAPTc was tested at 3 nM with 150 μM (approximately the value of the apparent Michaelis-Menten constant -appKM- [16]) LSTVIVR peptide substrate in a 40 min reaction. Before addition of substrate, LAPTc was preincubated with 45 nL compounds or DMSO for 15 min. Compounds, dissolved in DMSO, were tested at 30 μM. Controls without compound (the same volume of DMSO, 0% inhibitory effect) and without enzyme and compound (100% inhibitory effect) were prepared. The experiment was performed without replicates. The remaining experimental conditions were maintained as previously described. Data were processed and analysed through ActivityBase XE (IDBS). The selection criterion for hits in this single point screen was percent inhibition larger than the mean plus three standard deviations. All primary screening data are available in ChEMBL (see Data Availability statement).

[2] = target: T1, LAPTc (acidic M17 leucyl-aminopeptidase from T. cruzi); assay: Dose-response studies for LAPTc inhibition by RapidFire-MS; assay type: biochemical; settings: for Emax: read-out: Maximum Effect; for Hit Confirmation: whether primary screen hit confirmed in potency experiment
Procedure: as §1
To generate half-maximum inhibitory concentration (IC50) data for LAPTc, 10-point dose-response curves with 100 μM as highest concentration and 1:2 dilution in DMSO (0.195–100 μM range) were prepared in 384 well plates. All other experimental conditions were as described above. All IC50 curve fitting was performed by four-parameter logistic dose-response curve fit using ActivityBase XE (IDBS). At least three replicates were generated for each hit compound.

[3] = tested on: intracellular T. cruzi amastigotes; assay: T. cruzi intracellular assay (high-content imaging, infected Vero cells); assay type: cell-based, Trypanosoma cruzi; design: Max Effect (T. cruzi): unit not given here; settings: for EC50 / Emax: Trypanosoma cruzi, Vero; for Emax: read-out: Max Effect (T. cruzi)
Procedure: T. cruzi parasite, TcI strain Silvio X10/7 subclone A1 [34] was maintained in culture as previously described. Parasites were maintained as amastigotes by passaging on a weekly basis in Vero cells. Culture maintenance infections were carried out at an MOI (multiplicity of infection) of 1.5.
(§2) This assay was performed as described with the only modification that treatment was 96 h instead of 72 h. Briefly, Vero cells were infected overnight with tissue culture derived T. cruzi trypomastigotes in T225 tissue culture flasks (MOI 5). Any remaining free trypomastigotes were washed away with serum free MEM and the infected Vero cells were harvested by trypsinisation. Compounds (250 nL in DMSO) were dispensed using LabCyte ECHO (Beckman Coulter Life Sciences, USA) into each well of Corning black flat bottomed 384-well plates (Corning, USA). […] The infected Vero cells were then plated into the plates containing the compounds, at 4,000 cells per well in MEM media with 1% FCS. After 96 h incubation at 37°C in presence of 5% CO2, the plates were fixed with 4% formaldehyde for 20 min at room temperature and stained with 5 μg/mL Hoechst 33342. The plates were imaged on a Perkin Elmer Operetta high-content imaging system using a 20× objective. Images were analyzed using the Columbus system (Perkin Elmer). The algorithm first identified the Vero nuclei followed by demarcation of the cytoplasm and identification of intracellular amastigotes. This algorithm reported percent infected Vero cell and total number of Vero cells. All potency determinations were carried out in at least three independent replicates and are reported as pEC50 +/- standard deviation. pEC50 = -log(EC50[M]).

[4] = Cytotoxicity against infected Vero host cells in T. cruzi intracellular assay; assay type: cell-based, African green monkey; design: Max Effect (Vero): unit not given here; settings: African green monkey, Vero cells infected with T. cruzi; infected Vero host cells, 96 h; read-out: pCC50 (Vero) +/- StDev (converted)
Procedure: (§3) Briefly, these cells were maintained at 37°C and 5% CO2 in MEM supplemented with 10% FCS, sub-culturing every 2–3 days at a ratio of 1:5 after 5 min treatment with Trypsin-EDTA (Gibco).
as §2, with “After 96 h incubation at 37°C in presence of 5% CO2, the plates were fixed with 4% formaldehyde for 20 min at room temperature and stained with 5 μg/mL Hoechst 33342.” left out

Vero cells = assay: as above; assay type: cell-based, African green monkey; design: Max Effect (Vero): unit not given here; settings: individual replicates
Procedure: as §3
as §2, with “After 96 h incubation at 37°C in presence of 5% CO2, the plates were fixed with 4% formaldehyde for 20 min at room temperature and stained with 5 μg/mL Hoechst 33342.” left out

[5] = Cytotoxicity assay on human HepG2 cells (resazurin); assay type: cell-based; settings: human, HepG2 cells, 72 h, two independent experiments; read-out: pCC50 (HepG2) (converted)
HepG2 cells = assay: as above; assay type: cell-based; settings: individual replicates
[6] = Initial hit confirmation, single replicate
[7] = Initial hit confirmation, single replicate, read-out: pIC50 (converted)
[8] = Replicate data generation, individual replicates
[9] = Replicate data generation, individual replicates, read-out: pIC50 (converted)
[10] = average of four independent replicates, read-out: pIC50 +/- StDev (LAPTc) (converted)
[11] = 96 h, four independent experiments, read-out: pEC50 (T. cruzi) +/- StDev (converted)
[12] = individual replicates, read-out: pEC50 (T. cruzi) (converted)

T1 sequence (V5BWE3 entry or part of it): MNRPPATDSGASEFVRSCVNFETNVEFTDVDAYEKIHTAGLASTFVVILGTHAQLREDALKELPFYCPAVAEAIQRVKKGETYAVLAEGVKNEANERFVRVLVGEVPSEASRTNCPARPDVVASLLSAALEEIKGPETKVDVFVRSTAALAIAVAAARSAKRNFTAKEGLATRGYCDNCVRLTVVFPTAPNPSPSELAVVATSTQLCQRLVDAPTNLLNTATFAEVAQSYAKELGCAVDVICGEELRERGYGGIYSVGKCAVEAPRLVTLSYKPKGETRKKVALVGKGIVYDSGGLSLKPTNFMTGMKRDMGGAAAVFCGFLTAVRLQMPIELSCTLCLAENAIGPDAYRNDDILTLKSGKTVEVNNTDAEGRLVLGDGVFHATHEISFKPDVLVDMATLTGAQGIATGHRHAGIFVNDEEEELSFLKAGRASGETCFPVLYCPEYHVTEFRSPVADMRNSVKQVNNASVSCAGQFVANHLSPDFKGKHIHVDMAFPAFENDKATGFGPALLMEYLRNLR

Compound | inhibition at 30 µM [1] [%] | Hill Slope [2, 6] | Emax [2, 6] [%] | IC50 [2, 7] [µM] | Hill Slope [2, 8] | Maximum Effect [2, 8] | Emax [2, 8] [%] | IC50 [2, 9] | IC50 [2, 10] [µM] | Hit Confirmation [2] | EC50 [3, 11] [µM] | EC50 [3, 12] [µM] | Max Effect (T. cruzi) ([3]; individual replicates) | CC50 at 96 h [4] [µM] | Max Effect (Vero) (Vero cells) | pEC50 (Vero) (Vero cells) | CC50 at 72 h [5] [µM] | Max Effect (HepG2) (HepG2 cells) | pEC50 (HepG2) (HepG2 cells) | Emax ([3]; individual replicates) [%] | further results
CC1c2ccsc2CCN1C(=O)c1ccc(-n2cnnn2)cc1 (centres unmarked) [Compound 2] | 62 | 1.7 | 77 | 31.6 | 1.1 and 1.2 | 86% | 87 | 15.8 µM | 19.5 | confirmed | > 50.1 | > 50.1 | 42 and 15 and 37 and 27 | > 50.1 | 26 and 27 and 21 and 22 | < 4.3 | > 100 | 4 and 3 | < 4.0 |  | 
Cc1ccc2nc(-c3ccc(NS(=O)(=O)c4cc(C(=O)O)c(Cl)cc4Cl)cc3)sc2c1 [Compound 5] | 58 | 1.2 | 96 | 12.6 | 4.3 and 4.2 and 3.9 | 98% | 99 | 7.94 µM | 8.91 | confirmed | > 50.1 | > 50.1 | 45 | 33.1 | 71 and 82 and 77 | 4.4 and 4.6 and 4.5 | > 100 | 4.7 and 1.78 | < 4.0 | 44 | 
O=C(CN1NS(=O)(=O)c2ccccc2C1=O)NCCc1ccccc1 [Compound 6] | 56 | 0.543 | 68 | 20 | 0.9 and 0.54 and 0.7 | 72% and 73% | 76 | 7.94 µM and 12.6 µM and 5.01 µM | 9.77 | confirmed | > 50.1 | > 50.1 | 20 and 14 and 16 | > 50.1 | 8.54 and 13 and 11 and 18 | < 4.3 | > 100 | 3.48 and 3.47 | < 4.0 | 11 | 
Nc1[nH]cnc1-c1nc(-c2ccccc2)cs1 [Compound 7] | 56 | 1.2 | 90 | 2 | 1.7 and 1.5 | 50% and 61% | 53 |  | 3.89 | confirmed | 38.9 | 31.6 | 59 and 37 and 30 | 10.2 | 78 and 73 | 5.1 and 4.8 and 5.2 | > 100 | 3 and 4 | < 4.0 |  | pEC50 (T. cruzi) ([3]; individual replicates): < 4.3 and 4.3
Cn1ccnc1C(NS(=O)(=O)c1ccc(C#N)cc1)c1cccc(F)c1 (centres unmarked) [Compound 8] | 49 | 1.0 | 89 | 12.6 | 1.5 and 1.6 and 1.3 | 82% | 79 | 12.6 µM |  | confirmed | > 50.1 | > 50.1 | 31 and 26 and 25 | > 50.1 | 18 and 29 and 34 and 32 | < 4.3 | > 100 | 6.44 and 10 | < 4.0 | 29 | 
O=C(NCC(=O)N1CCc2ccccc2C1)C1CCCCC1 [Compound 9] | 49 | 1.7 | 54 | 15.8 | 0.749 and 0.7 and 0.655 | 67% and 63% | 64 | 39.8 µM and 31.6 µM | 28.8 | confirmed | > 50.1 | > 50.1 | 27 and 21 and 30 | > 50.1 | 7 and 4 and 15 and 11 | < 4.3 | > 100 | 3.76 and 2.85 | < 4.0 | 31 | 
COc1ccc(CC(=O)Nc2nc(-c3ccccn3)cs2)c(OC)c1 [Compound 12] | 42 | 2.1 | 84 | 20 | 1.0 and 0.9 and 1.3 | 67% and 73% | 68 | 31.6 µM and 20 µM | 25.1 | confirmed | 7.08 | 7.94 | 100 and 94 | 1 | 46 and 49 and 51 |  | > 100 | 11 and 10 | < 4.0 | 98 | pEC50 (T. cruzi) ([3]; individual replicates): 5.2
